67 compounds from the OPERA property sets (Mansouri et al. 2018) can be followed below.

Values after ≈ are worked out from the molar mass of the structure shown.

Usually solubility stands for the concentration that dissolves in the medium under given conditions.

For one series the following is noted: 25 °C.
In the case of `CCCCC(N)C(=O)O` (racemic), the solubility is 88.5 mM (≈ 11600 µg/mL).
Take `O=C(O)c1cccc([N+](=O)[O-])c1C(=O)O`: the solubility worked out at 95.2 mM (≈ 20100 µg/mL).
Still for that read-out and setting: then `Clc1c(Cl)c(Cl)c(-c2ccccc2)c(Cl)c1Cl`, with 1.23e-05 mM (≈ 0.00401 µg/mL); and `C[C@H]1c2cccc(O)c2C(=O)C2=C(O)[C@]3(O)C(=O)C(C(N)=O)=C(O)[C@@H](N(C)C)[C@@H]3[C@@H](O)[C@@H]21`, with 1.42 mM (≈ 630 µg/mL); and `Clc1ccc(Br)cc1`, with 0.235 mM (≈ 44.9 µg/mL).
Still for that read-out and setting: then `O=C(O)c1ccc([N+](=O)[O-])cc1[N+](=O)[O-]`, with 85.8 mM (≈ 18200 µg/mL); and `Nc1cc[nH]c(=O)n1`, with 72 mM (≈ 8000 µg/mL).
`O=C(O)c1cccc(Br)c1` gave a solubility of 2 mM (≈ 402 µg/mL).
The compound `CCCCCCCC=O` returned a solubility of 4.37 mM (≈ 560 µg/mL).
For the compound `Cc1ccc(C)c2c(C)cccc12`, the solubility turned out to be 0.0123 mM (≈ 2.1 µg/mL).
The compound `CC#CCCCC` displayed a solubility of 1.7 mM (≈ 163 µg/mL).
Same read-out and setting: then `O=C(O)c1cc([N+](=O)[O-])cc([N+](=O)[O-])c1`, with 6.37 mM (≈ 1350 µg/mL).
Still for that read-out and setting: then `C=CCC1(C(C)CCC)C(=O)NC(=S)NC1=O` (configuration not stated), with 0.348 mM (≈ 88.5 µg/mL).
For the compound `Clc1ccc(Cl)c(-c2cc(Cl)ccc2Cl)c1`, the solubility turned out to be 5.24e-05 mM (≈ 0.0153 µg/mL).
`O=C1C(Cl)=C(Cl)C(=O)C(Cl)=C1Cl` displayed a solubility of 1.02 mM (≈ 250 µg/mL).
In turn, `Cc1cc(-c2ccc(N)c(C)c2)ccc1N` had a solubility of 6.12 mM (≈ 1300 µg/mL).
`CCCCCCCC` returned a solubility of 0.00578 mM (≈ 0.66 µg/mL).
In turn, `OC(c1ccccc1)c1ccccc1` came in with a solubility of 2.82 mM (≈ 520 µg/mL).
On the same count and under the same terms, then `O=c1cc[nH]c(=O)[nH]1`, with 32.1 mM (≈ 3600 µg/mL).
In turn, `CCCCCCCCCCCCCCCCCC` yielded a solubility of 2.36e-05 mM (≈ 0.006 µg/mL).
`Cc1cccc2sc3nncn3c12` gave a solubility of 8.45 mM (≈ 1600 µg/mL).
In the case of `Oc1ccc(-c2ccccc2)cc1`, the solubility was determined as 0.33 mM (≈ 56.2 µg/mL).
On the same count and under the same terms, the value for `CCC(O)(CC)CC` was 145 mM (≈ 16800 µg/mL).
The same measure, in the same setting: then `NCC[C@H](O)C(=O)N[C@@H]1C[C@H](N)[C@@H](O[C@H]2O[C@H](CN)[C@@H](O)[C@H](O)[C@H]2O)[C@H](O)[C@H]1O[C@H]1O[C@H](CO)[C@@H](O)[C@H](N)[C@H]1O`, with 316 mM (≈ 185000 µg/mL).
The compound `Cc1ccc(-c2ccccc2)cc1` displayed a solubility of 0.0241 mM (≈ 4.05 µg/mL).
Still for that read-out and setting: the value for `CCCCCO` was 250 mM (≈ 22000 µg/mL); that for `Cc1ccc(C)c(O)c1` was 29 mM (≈ 3540 µg/mL).
Regarding `CC1CCCCC1`, the solubility turned out to be 0.152 mM (≈ 15 µg/mL).
Still for that read-out and setting: then `Nc1ccc(-c2ccc(N)cc2)cc1`, with 1.75 mM (≈ 322 µg/mL).
Compound `Clc1cccc(-c2ccccc2)c1` returned a solubility of 0.0192 mM (≈ 3.63 µg/mL).
Same read-out and setting: then `CCC(C)(C)c1ccc(O)cc1`, with 1.02 mM (≈ 168 µg/mL).
Take `Nc1ncnc2[nH]cnc12`: the solubility was found to be 7.62 mM (≈ 1030 µg/mL).
In turn, `Cc1ccnc(C)c1` registered a solubility of 3020 mM (≈ 324000 µg/mL).
`Fc1cccc(CCl)c1` gave a solubility of 2.86 mM (≈ 414 µg/mL).
Same read-out and setting: then `Cc1cc(=O)[nH]c(=S)[nH]1`, with 3.75 mM (≈ 533 µg/mL); and `O=C(O)c1ccc(F)cc1`, with 8.56 mM (≈ 1200 µg/mL); and `C=CCCC`, with 2.11 mM (≈ 148 µg/mL).
Same read-out and setting: the value for `CCCCCCOC(C)=O` was 3.54 mM (≈ 511 µg/mL); that for `Ic1cccc2ccccc12` was 0.0282 mM (≈ 7.16 µg/mL); that for `O=C(O)COc1ccc(Cl)cc1Cl` was 3.06 mM (≈ 677 µg/mL).
The compound `CCCN(CCC)CCC` gave a solubility of 5.22 mM (≈ 748 µg/mL).
Compound `CC(=O)C(C)(C)C` gave a solubility of 190 mM (≈ 19000 µg/mL).
Same read-out and setting: then `Cc1cccc2c1Cc1ccccc1-2`, with 0.00605 mM (≈ 1.09 µg/mL).
The compound `CCc1ccc2ccccc2c1` registered a solubility of 0.0513 mM (≈ 8.01 µg/mL).
As to `CC(=O)C(C)C`, the solubility amounted to 706 mM (≈ 60800 µg/mL).
On to `CC(C)(OO)c1ccccc1`, for which the solubility came to 91.3 mM (≈ 13900 µg/mL).
Still for that read-out and setting: the value for `Clc1ccc(-c2cc(Cl)ccc2Cl)cc1` was 0.000555 mM (≈ 0.143 µg/mL); that for `CCCCCCCCCCCCCCCCCCCCCCCCCCCCCCCCCCCC` was 3.35e-06 mM (≈ 0.0017 µg/mL); that for `CCOC(=O)CC#N` was 177 mM (≈ 20000 µg/mL).
The same measure, in the same setting: the value for `CC(=O)OCC(C)C` was 54.2 mM (≈ 6300 µg/mL); that for `O=C(O)COc1ccc(Cl)cc1` was 5.13 mM (≈ 957 µg/mL); that for `c1ccc2c(c1)Cc1cc3ccccc3cc1-2` was 1.1e-05 mM (≈ 0.00238 µg/mL).
Still for that read-out and setting: the value for `Oc1c(Cl)cc(Cl)c(Cl)c1Cc1c(O)c(Cl)cc(Cl)c1Cl` was 0.344 mM (≈ 140 µg/mL).
Regarding `CCCCC(C)C`, the solubility is 0.0253 mM (≈ 2.54 µg/mL).
On the same count and under the same terms, then `CCC1(C2=C[C@H]3CC[C@@H](C2)C3)C(=O)NC(=O)NC1=O`, with 1.7 mM (≈ 446 µg/mL); and `COc1ccc(C(O)(c2cncnc2)C2CC2)cc1` (configuration not stated), with 2.54 mM (≈ 650 µg/mL); and `CC(C)C(O)C(C)C`, with 60.2 mM (≈ 7000 µg/mL).
The same measure, in the same setting: the value for `CCC(C)c1ccccc1` (configuration not stated) was 0.131 mM (≈ 17.6 µg/mL); that for `O=C(O)c1cccc(F)c1` was 10.7 mM (≈ 1500 µg/mL); that for `CN(C)C(=O)Nc1ccccc1` was 24.5 mM (≈ 4030 µg/mL).
Consider `Cc1ccc2ccc(C)nc2c1`, for which the solubility is 11.4 mM (≈ 1790 µg/mL).
The same measure, in the same setting: then `CSCCC(N)C(=O)O` (racemic), with 331 mM (≈ 49300 µg/mL).
For the compound `O=C(O)c1cc(=O)cc(C(=O)O)o1`, the solubility came out at 77.7 mM (≈ 14300 µg/mL).
Turning to `c1ccc(-c2ccccc2-c2ccccc2)cc1`, the solubility came to 0.00538 mM (≈ 1.24 µg/mL).

The same series, now with this note: 30 °C.
On to `CN=C(O)Oc1cccc(C)c1`, for which the solubility came to 15.7 mM (≈ 2600 µg/mL).
`CC1OC(C)OC(C)O1` (configuration not stated) gave a solubility of 847 mM (≈ 112000 µg/mL).
The same measure, in the same setting: then `CCOC(=O)C1(c2ccccc2)CCN(C)CC1`, with 13 mM (≈ 3220 µg/mL).
